Where two headings read alike, the source gives them in different places.
How the values were obtained:
[1] = acid resistance / decomposition by acid; assay type: physicochemical; conditions: compared with EM-523 / publicly known erythromycin derivatives
Method: (§1) From a killed rabbit was removed the duodenum, of which the mucous membrane was detached from the tunica muscularis and then homogenized in a 50 mM Tris solution (pH 7.4) to prepare a protein solution. Twenty-five pM of ^125 I-labelled motilin (purchased from Ohtsuka Assay Laboratory) and the protein solution were incubated at 25° C. for 120 minutes, after which the radioactivity of the protein was measured with a γ-ray counter, the difference between the radioactivity observed in the case of non-addition of motilin and that observed in the case of addition of an excess (1×10^-7 m) of motilin being defined as the specific binding capacity. The efficacies of the samples were expressed as IC50 (M), the concentration of each of the test drugs which reduces the specific binding capacity to 50%. The test drug was dissolved in a DMSO solution and added to the protein solution (the final DMSO concentration:1%). In experiments on investigation of the acid resistance, the test drug was dissolved in a hydrochloric acid solution (pH 2.5) which was then allowed to stand at room temperature for 120 minutes prior to its addition to the protein solution for the experiments.

[2] = system: gastric antrum contractile motility; test: gastrointestinal motility of the conscious dog (force transducers, intragastric administration); assay type: in vivo, Beagle dog; conditions: for ED (MI=150): Canis lupus familiaris, po, conscious dog, interdigestive state, gastric antrum, read-out: MI150 (test drug dosage required to provide MI=150); for gastrointestinal contractile activity (in words): administered into the stomach
Method: The gastrointestinal motility of the conscious dog was measured according to the method described previously [Itoh, Zen, Journal of the Smooth Muscle Research, 13, 33 (1976)]. Beagle dogs weighing approximately 10 kg were anesthetized with an intravenously (i.v.) injection of pentobarbital sodium and the abdominal cavity was opened under aseptic conditions. Extraluminal force transducers were sutured onto the serosa of the gastric antrum (stomach), duodenum and jejunum in a manner to measure circular muscle contraction. In addition, a Silastic tube [French, size 6.5, Dow Corning, Midland, Mich., U.S.A.) was placed into the stomach for direct administration of test drugs into the stomach. The lead wires of these force transducers and a Silastic tube were led out of the abdominal cavity and through a skin incision made between the scapulae. After the operation, the dogs were housed in individual experimental cages and given commercial dog food once a day.
The gastrointestinal motor activity was recorded on a thermal pen-writing recorder (WR-3101, Graphtec, Tokyo, Japan) by connecting the lead wires of the transducers to the connecting cables from the amplifiers (UG-5, Nihon Kohden, Tokyo, Japan). About 2 weeks postoperatively, gastrointestinal contractile activity could be divided into two main patterns of activity, interdigestive and digestive state. In the interdigestive state, IMC (interdigestive migrating contractions) were seen to occur at regular intervals of 100-120 minutes in the gastric antrum and migrated through the duodenum and jejunum at a constant velocity. In all animals, feeding disrupted the regular IMC pattern. Experiments were carried out during interdigestive state. The test drug was directly injected into the stomach through a Silastic tube placed in the stomach in a volume of 3 ml, 15 min after the end of the IMC in the gastric antrum. Test drugs were dissolved in ethanol, and then diluted with 0.9% physiological saline.
To measure motility quantitatively, the signals from the gastric antrum were relayed to a personal computer (PC-9801, NEC, Tokyo, Japan) every 100 ms. The area surrounded by the contraction waves and the base line, i.e., the product of the amplitude (voltage) and the time in minutes during a certain fixed period, was calculated, expressed as percent of the area assuming that maximum contraction (amplitude) of the interdigestive migrating contraction lasted for 1 min, and used as the motor index (MI) [Inatomi et al., J. Pharmacol. Exp. Ther. 251, 707 (1989)]. The MI, which is calculated in this manner, of the naturally occurred in the gastric antrum is about 100-200. Therefore, the test drug dosage required to provide MI=150 was defined to be MI150 which was used as the index of the stimulating effects or the gastric motility of test drugs.

motilin receptor = biological target: T1, motilin receptor (Oryctolagus cuniculus, UniProt G1T803); test: motilin receptor binding test (displacement of 125I-labelled motilin); parameters: species or system rabbit; conditions: for activity in the hydrochloric acid solution compared with that in the DMSO solution: HCl pH 2.5, 120 min vs. DMSO
T1 construct: From a killed rabbit was removed the duodenum; from tissue; host or cells: rabbit duodenum homogenate (mucous membrane detached from the tunica muscularis, homogenized in 50 mM Tris pH 7.4)
T1 sequence (G1T803 1-400): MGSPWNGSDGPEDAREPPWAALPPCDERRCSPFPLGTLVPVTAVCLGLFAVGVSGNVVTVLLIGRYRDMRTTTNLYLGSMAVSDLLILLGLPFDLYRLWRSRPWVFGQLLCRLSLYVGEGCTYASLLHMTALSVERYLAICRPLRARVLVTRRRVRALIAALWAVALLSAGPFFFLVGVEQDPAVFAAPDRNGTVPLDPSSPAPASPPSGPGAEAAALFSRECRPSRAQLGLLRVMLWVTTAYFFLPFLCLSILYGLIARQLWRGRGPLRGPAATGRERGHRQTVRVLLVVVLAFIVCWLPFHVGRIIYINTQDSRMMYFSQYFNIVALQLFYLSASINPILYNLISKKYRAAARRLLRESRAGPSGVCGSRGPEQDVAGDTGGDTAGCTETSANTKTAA
Method: A motilin receptor binding test was conducted in the manner described hereunder [V. Bormans, et al., Regul. Peptides, 15, 143 (1986)].
as §1

[3] = background statement; cited from earlier work

Compound | decomposition by acid (in words) [1] | ED (MI=150) ([2]; intragastric) [µg/kg] | gastrointestinal contractile activity (in words) [2] | contractile activity in the gastric antrum relative to EM-523 ([2]; intragastric, ratio of potency to EM-523) | level of activity in DMSO solution (comparison of Compound 6 and EM-523) (motilin receptor) | activity in the hydrochloric acid solution compared with that in the DMSO solution (motilin receptor) | IC50 (motilin receptor; test drug in DMSO solution (final DMSO 1%), rabbit duodenum, 25 pM 125I-motilin, 25° C., 120 min, pH 7.4, read-out: IC50, Solution in DMSO) [nM] | IC50 (motilin receptor; test drug stood in hydrochloric acid solution (pH 2.5) at room temperature for 120 minutes before the assay, read-out: IC50, Solution in HCl) [nM] | stability in the presence of an acid (in words) [3]
CC[C@H]1OC(=O)[C@H](C)[C@@H](O[C@H]2C[C@@](C)(OC)[C@@H](O)[C@H](C)O2)[C@H](C)[C@@H](O[C@@H]2O[C@H](C)C[C@H](N(C)C(C)C)[C@H]2O)[C@@]2(C)CC(C)=C(O2)[C@H](C)C(=O)[C@]1(C)OC [Compound 6, isopropyl-nor-12-O-methyl-11-oxo-8,9-anhydroerythromycin A 6,9-hemiketal] | less decomposable with an acid than is EM-523 | 3.8 | increased gastrointestinal contractile activity | about 4 times | the same level of activity | differing little from the value in the DMSO solution | 4.1 | 9.1 | –
CC[C@H]1OC(=O)[C@H](C)[C@@H](O[C@H]2C[C@@](C)(OC)[C@@H](O)[C@H](C)O2)[C@H](C)[C@@H](O[C@@H]2O[C@H](C)C[C@H](N(C)CC)[C@H]2O)[C@@]2(C)CC(C)=C(O2)[C@H](C)[C@@H](O)[C@]1(C)O [EM-523, reference compound] | – | 14.6 | increased gastrointestinal contractile activity | – | the same level of activity | a decrease in the activity to one-100th that in the DMSO solution | – | – | unstable in the presence of an acid

— patent US5658888A, “Erythromycin derivatives” (Chugai Seiyaku Kabushiki Kaisha, priority 1992, dated 1997)
